ChEMBL document CHEMBL3745630, “Cloning, characterization and anion inhibition studies of a γ-carbonic anhydrase from the Antarctic bacterium Colwellia psychrerythraea” (Bioorg Med Chem, 2016)

Assay: Inhibition of Colwellia psychrerythraea gamma carbonic anhydrase expressed in Escherichia coli incubated for 15 mins prior to testing by stopped flow CO2 hydration method

O=S(=O)(O)OOS(=O)(=O)O [SODIUM PERSULFATE]
Ki: 4.5 mM

N=C=[Se] [SODIUM ISOSELENOCYANATE]
Ki: 6 mM

[O-][Cl+3]([O-])([O-])O [SODIUM PERCHLORATE]
Ki: > 100 mM

O=[As](O)(O)c1ccccc1 [PHENYLARSONIC ACID]
Ki: 0.038 mM

F[P-](F)(F)(F)(F)F.[Na+]
Ki: 5.6 mM

N#CO [SODIUM CYANATE]
Ki: 2.5 mM

[Cl-].[Na+] [SODIUM CHLORIDE]
Ki: 9 mM

[I-].[Na+] [SODIUM IODIDE]
Ki: 8.7 mM

O=C([O-])O.[Na+] [SODIUM BICARBONATE]
Ki: 1.7 mM

NS(N)(=O)=O [SULFAMIDE]
Ki: 0.008 mM

F[B-](F)(F)F.[Na+] [SODIUM TETRAFLUOROBORATE]
Ki: > 100 mM

[F-].[Na+] [SODIUM FLUORIDE]
Ki: > 100 mM

O=S([O-])O.[Na+] [SODIUM BISULFITE]
Ki: 37.5 mM

[N-]=[N+]=[N-] [SODIUM AZIDE]
Ki: > 100 mM

CCN(CC)C(=S)S [DITIOCARB SODIUM]
Ki: 0.58 mM

N=C=S [SODIUM ISOTHIOCYANATE]
Ki: 3.3 mM

S=C(S)S [SODIUM CARBONOTRITHIOATE]
Ki: 3.8 mM

NS(=O)(=O)O [SULFAMATE]
Ki: 0.037 mM

O=BOB(O)OB(O)OB=O [SODIUM TETRABORATE]
Ki: 4.7 mM

OB(O)c1ccccc1 [PHENYLBORONIC ACID]
Ki: 0.026 mM

O=NO [SODIUM NITRITE]
Ki: 8.8 mM

O=[Te](=O)(O)O [SODIUM TELLURATE]
Ki: 5.1 mM

S [SODIUM HYDROSULFIDE]
Ki: 4.8 mM

O=C([O-])[O-].[Na+].[Na+] [SODIUM CARBONATE]
Ki: 1.4 mM

O=[Se](=O)(O)O [SODIUM SELENATE]
Ki: 8.3 mM

O=S(=O)([O-])[O-].[Na+].[Na+] [SODIUM SULFATE ANHYDROUS]
Ki: 9.4 mM

[Br-].[Na+] [SODIUM BROMIDE]
Ki: > 100 mM

O=[N+]([O-])[O-].[Na+] [SODIUM NITRATE]
Ki: 21.7 mM
